Laboratory results as given in patent US11787812B2, “Substituted pyrazolo[4,3-d]pyrimidines and imidazo[5,1 -f][1,2,4]triazines as androgen receptor and phosphodiesterase dual inhibitors” (ILDONG PHARMACEUTICAL CO., LTD., priority 2020, dated 2023).

Key:
[1] = target: androgen receptor (AR) (Homo sapiens (Human), UniProt P10275); test: Androgen receptor (AR) reporter assay, antagonist screen activated by R1881; format: cell-based; conditions: AR-UAS-bla GripTite 293 cells, antagonist mode, R1881 at EC80
Method: The protocols and results of this Example were carried out and obtained by Thermofisher Scientific.
Test compounds were received at 1000× (or greater) of the desired starting concentration in 100% DMSO. If compounds were supplied at greater that 1000× concentration, an initial dilution is made in 100% DMSO to bring the compounds to 1000× concentration. The 1000× test compounds were serially diluted (10 point ½-log increments) in 100% DMSO.
The Substrate Loading Solution consists of three Life Technologies reagents: Solution A (10 mM LiveBLAzer™-FRET B/G Substrate), Solution B and Solution C.
Androgen Receptor (AR)—Antagonist Screen, Activated by R1881
AR-UAS-bla GripTite™ 293 cells were thawed and resuspended in Assay Media (DMEM phenol red free, 2% CD-treated FBS, 0.1 mM NEAA, 1 mM Sodium Pyruvate, 100 U/mL/100 μg/mL Pen/Strep) to a concentration of 312,500 cells/mL. 4 μL of a 10× serial dilution of Cyproterone Acetate (control antagonist starting concentration, 3,160 nM) or compounds are added to appropriate wells of a Poly-D-Lysine assay plate. 32 μL of cell suspension was added to the wells and pre-incubated at 37° C./5% CO2 in a humidified incubator with compounds and control antagonist titration for 30 minutes. 4 μL of 10× control agonist R1881 at the pre-determined EC80 concentration was added to wells containing the control antagonist or compounds. The plate was incubated for 16-24 hours at 37° C./5% CO2 in a humidified incubator. 8 μL of 1 μM Substrate Loading Solution is added to each well and the plate was incubated for 2 hours at room temperature. The plate was read on a fluorescence plate reader (Tecan Safire^2).

[2] = target: human PDE-5A1 (Homo sapiens (Human), UniProt O76074); test: Human PDE-5A1 inhibition assay (fluorescence polarization, FAM-cGMP); format: biochemical; conditions: human PDE5A1, 100 nM FAM-cGMP, 60 minutes room temperature
Text: This example illustrates the in vitro inhibition of human PDE-5A1 by exemplary compounds of this disclosure (e.g., as described herein).
Sildenafil citrate (Catalog no. LKT-S3313, Axxora, San Diego, CA), Vardenafil hydrochloride trihydrate (Catalog no. SML2103, Sigma-Aldrich, St. Louis, MO), PDE Assay Buffer (Catalog no. 60393, BPS bioscience, San Diego, CA), PDE Binding Agent (Catalog no. 60390, BPS bioscience, San Diego, CA) and PDE Binding Agent Diluent (cGMP, Catalog no. 60392, BPS bioscience, San Diego, CA) were used for assays. Test compounds were supplied by Ildong Pharmaceuticals Co., Ltd.
The serial dilution of the compounds was first performed in 100% DMSO with the highest concentration at 1 mM and 0.1 mM. Each intermediate compound dilution (in 100% DMSO) will then get directly diluted 10× fold into assay buffer for 10% DMSO and 5 μL of the dilution was added to a 50 μL reaction so that the final concentration of DMSO is 1% in all reactions.
The enzymatic reactions were conducted at room temperature for 60 minutes in a 50 μL mixture containing PDE assay buffer, 100 nM FAM-cGMP, a PDE enzyme (Table 2) and the test compounds.
After enzymatic reaction, 100 μL of a binding solution (1:100 dilution of the binding agent with the binding agent diluent) was added to each reaction and the reaction was performed at room temperature for 60 minutes.
Fluorescence intensity was measured at excitation of 485 nm and an emission of 528 nm using a Tecan Infinite M1000 microplate reader.
PDE activity assays were performed in duplicate at each concentration. Fluorescence intensity is converted to fluorescence polarization using the Tecan Magellan6 software. The fluorescence polarization (FPt) in absence of the compound in each data set was defined as 100% activity. In the absence of PDE and the compound, the value fluorescent polarization (FPb) in each data set was defined as 0% activity. The percent activity in the presence of compound was calculated according to Equation 1:
[formula] where FP=the fluorescence polarization in the presence of the compound.
The values of % activity versus a series of compound concentrations were then plotted using non-linear regression analysis of Sigmoidal dose-response curve generated with Equation 2:
[formula] where Y=percent activity, B=minimum percent activity, T=maximum percent activity, X=logarithm of compound, and Hill Slope=slope factor or Hill coefficient. The IC50 value was determined by the concentration causing a half-maximal percent activity. Results

[3] = target: Human androgen receptors (Homo sapiens (Human), UniProt P10275, T878A); test: Androgen receptor (AR) radioligand binding assay; conditions: receptors from human LNCaP cells, 0.5 nM [3H]Methyltrienolone, 20 hours at 4° C.; read-out: AR IC50
Method: Methods employed in this study have been adapted from the following literature procedure.
Human androgen receptors obtained from human LNCaP cells are used in modified HEPES buffer pH 7.4. […] Non-specific binding is estimated in the presence of 1 μM testosterone. […] (See, e.g., Traish, A. M et al., Binding of 7α, 17α-dimethyl-19-nortestosterone (Mibolerone) to androgen and progesterone receptors in human and animal tissues. Endocrinology. 118(4): 1327-1333, 1986).
Compounds are screened at 10 μM.
Where presented, IC50 values were determined by a non-linear, least squares regression analysis using MathIQ™ (ID Business Solutions Ltd., UK).

Sequence of Human androgen receptors (P10275 whole entry T878A): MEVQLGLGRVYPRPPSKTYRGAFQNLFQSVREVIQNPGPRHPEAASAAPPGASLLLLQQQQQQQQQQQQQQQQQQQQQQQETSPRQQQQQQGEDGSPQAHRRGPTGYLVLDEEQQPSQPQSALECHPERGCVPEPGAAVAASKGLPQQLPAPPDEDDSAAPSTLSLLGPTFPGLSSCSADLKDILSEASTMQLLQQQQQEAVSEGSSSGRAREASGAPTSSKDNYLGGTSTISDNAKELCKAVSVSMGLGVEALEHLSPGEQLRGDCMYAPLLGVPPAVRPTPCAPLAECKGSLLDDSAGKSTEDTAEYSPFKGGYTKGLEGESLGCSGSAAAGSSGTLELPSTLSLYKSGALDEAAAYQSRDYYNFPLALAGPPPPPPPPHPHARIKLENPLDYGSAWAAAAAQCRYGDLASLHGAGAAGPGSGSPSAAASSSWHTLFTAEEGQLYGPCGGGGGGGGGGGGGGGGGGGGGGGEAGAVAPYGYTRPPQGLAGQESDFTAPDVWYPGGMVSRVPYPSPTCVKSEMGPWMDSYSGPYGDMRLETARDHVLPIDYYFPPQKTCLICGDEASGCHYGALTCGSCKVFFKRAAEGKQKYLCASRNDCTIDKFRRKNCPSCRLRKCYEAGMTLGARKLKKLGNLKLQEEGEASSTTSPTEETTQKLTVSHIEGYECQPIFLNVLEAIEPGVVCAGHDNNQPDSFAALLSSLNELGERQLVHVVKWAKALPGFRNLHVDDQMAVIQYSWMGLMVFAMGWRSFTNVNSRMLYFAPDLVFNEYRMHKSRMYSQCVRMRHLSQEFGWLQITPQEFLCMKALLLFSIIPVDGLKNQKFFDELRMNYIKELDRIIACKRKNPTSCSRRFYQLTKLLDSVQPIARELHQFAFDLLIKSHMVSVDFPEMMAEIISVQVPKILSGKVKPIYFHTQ
Sequence of androgen receptor (AR) (P10275 other isoform, or with tags, fused parts or gaps): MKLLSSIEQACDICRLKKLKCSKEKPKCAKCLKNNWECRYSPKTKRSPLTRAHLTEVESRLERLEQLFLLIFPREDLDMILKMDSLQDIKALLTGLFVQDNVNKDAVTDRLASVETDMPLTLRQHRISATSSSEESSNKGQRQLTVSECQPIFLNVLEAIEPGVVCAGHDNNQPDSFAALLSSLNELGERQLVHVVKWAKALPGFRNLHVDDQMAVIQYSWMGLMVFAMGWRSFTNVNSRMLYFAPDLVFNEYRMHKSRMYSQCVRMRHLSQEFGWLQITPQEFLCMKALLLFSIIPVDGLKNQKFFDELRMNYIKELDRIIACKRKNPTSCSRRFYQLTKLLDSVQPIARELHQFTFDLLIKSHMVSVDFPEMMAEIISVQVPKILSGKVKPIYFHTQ

Structure (SMILES) | IC50 [1] | IC50 [2] | IC50 [3]
CCCc1nc(C)c2c(=O)[nH]c(-c3cc(N4C(=S)N(c5ccc(C#N)c(C(F)(F)F)c5)C(=O)C4C)ccc3OCC)nn12 (stereo not drawn) [Compound 26, 4-(3-(4-ethoxy-3-(5-methyl-4-oxo-7-propyl-3,4-dihydroimidazo[5,1-f][1,2,4]triazin-2-yl)phenyl)-4-methyl-5-oxo-2-thioxoimidazolidin-1-yl)-2-(trifluoromethyl)benzonitrile] | > 0.1 µM | ≤ 10 nM | > 0.2 µM
CCCc1nn(C)c2c(=O)[nH]c(-c3cc(N4C(=S)N(c5ccc(C#N)c(C(F)(F)F)c5)C(=O)C4(C)C)ccc3OCC)nc12 [Compound 13, 4-(3-(4-ethoxy-3-(1-methyl-7-oxo-3-propyl-6,7-dihydro-1H-pyrazolo[4,3-d]pyrimidin-5-yl)phenyl)-4,4-dimethyl-5-oxo-2-thioxoimidazolidin-1-yl)-2-(Influoromethyl)benzonilrile] | 0.5 to 1 µM | > 100 nM | > 0.2 µM
CCCc1nc(C)c2c(=O)[nH]c(-c3cc(S(=O)(=O)NC4CCN(c5ccc(C#N)c(C(F)(F)F)c5)C4=O)ccc3OCC)nn12 (stereo not drawn) [Compound 32, N-(1-(4-cyano-3-(trifluoromethyl)phenyl)-2-oxopyrrolidin-3-yl)-4-ethoxy-3-(5-methyl-4-oxo-7-propyl-3,4-dihydroimidazo[5,1-f][1,2,4]triazin-2-yl)benzenesulfonamide] | > 0.1 µM | ≤ 10 nM | > 0.2 µM
CCCc1nc(C)c2c(=O)[nH]c(-c3cc(N4C(=S)N(c5ccc(C#N)c(C(F)(F)F)c5)C(=O)C45CCCC5)ccc3OCC)nn12 [Compound 38, 4-(1-(4-ethoxy-3-(5-methyl-4-oxo-7-propyl-3,4-dihydroimidazo[5,1-f][1,2,4]triazin-2-yl)phenyl)-4-oxo-2-thioxo-1,3-diazaspiro[4.4]nonan-3-yl)-2-(trifluoromethyl)benzonitrile] | ≤ 0.5 µM | ≤ 10 nM | < 0.05 µM
CCCc1nc(C)c2c(=O)[nH]c(-c3cc(N4C(=S)N(c5ccc(C#N)c(C(F)(F)F)c5)C(=O)C4(C)C)ccc3OCC)nn12 [Compound 18, 4-(3-(4-ethoxy-3-(5-methyl-4-oxo-7-propyl-3,4-dihydroimidazo[5,1-f][1,2,4]triazin-2-yl)phenyl)-4,4-dimethyl-5-oxo-2-thioxoimidazolidin-1-yl)-2-(trifluoromethyl)benzonitrile] | ≤ 0.5 µM | ≤ 10 nM | < 0.05 µM
